Each compound was assayed against T1, p53 Y220C (Homo sapiens, UniProt P04637, Y220C) (assay: In vitro DNA binding activity assay (HTRF / TR-FRET): stabilization of p53 Y220C and increase of its DNA binding activity). Settings: recombinant His-tagged p53 Y220C DNA binding domain (aa 94-312), biotin-labeled consensus DNA, incubated at 27° C. or 29° C. for 60 min.
T1 construct: The recombinant protein was a truncation mutant containing only amino acids 94-312 of p53; made in house; host or cells: E. coli
T1 sequence (P04637 94-312, change not shown): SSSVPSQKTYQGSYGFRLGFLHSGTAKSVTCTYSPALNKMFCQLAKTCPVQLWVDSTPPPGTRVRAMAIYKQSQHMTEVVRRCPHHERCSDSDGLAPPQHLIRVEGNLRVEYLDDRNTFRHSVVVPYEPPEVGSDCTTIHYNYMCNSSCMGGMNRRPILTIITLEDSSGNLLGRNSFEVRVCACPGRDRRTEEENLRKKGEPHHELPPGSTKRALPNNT
Assay type: biochemical
In short: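 Homogeneous time-resolved fluorescence with E. coli-derived p53 Y220C and biotinylated consensus DNA. Room-temperature incubations of 15 and 20 min precede reading. SC150 denotes the compound concentration required for 50% increased DNA binding.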
For `CNc1cc(S(C)(=O)=O)ccc1OCC#Cc1cc2c(N[C@H]3CC[C@@H](N4CC5(COC5)C4)CC3)cccc2n1CC(F)(F)F` [Compound 244A, 2-{3-[4-methanesulfonyl-2-(methylamino)phenoxy]prop-1-yn-1-yl}-N-[(1S,4S)-4-{2-oxa-6-azaspiro[3.3]heptan-6-yl}cyclohexyl]-1-(2,2,2-trifluoroethyl)-1H-indol-4-amine], the “SC150 (concentration of the compound required to increase the DNA binding activity by 50%)” value was “++ (++ = 0.05 μM ≤ SC150 < 0.1 μM)”.
In the case of `CNc1cc(S(C)(=O)=O)ccc1OCC#Cc1cc2c(NC3CCC(N4CC5(COC5)C4)CC3)cccc2n1CC(F)(F)F` [Compound 245A, 2-{3-[4-methanesulfonyl-2-(methylamino)phenoxy]prop-1-yn-1-yl}-N-[(1R,4R)-4-{2-oxa-6-azaspiro[3.3]heptan-6-yl}cyclohexyl]-1-(2,2,2-trifluoroethyl)-1H-indol-4-amine], the “SC150 (concentration of the compound required to increase the DNA binding activity by 50%)” value is reported as “+ (+ = 0 μM ≤ SC150 < 0.05 μM)”.
In the case of `CNC(=O)c1ccc(NCC#Cc2cc3c(N[C@H]4CC[C@H](N5CC6(COC6)C5)CC4)cccc3n2CC(F)(F)F)c(O)c1` [Compound 248A, 3-hydroxy-N-methyl-4-{[3-(4-{[(1R,4R)-4-{2-oxa-6-azaspiro[3.3]heptan-6-yl}cyclo-hexyl]amino}-1-(2,2,2-trifluoroethyl)-1H-indol-2-yl)prop-2-yn-1-yl]amino}benzamide], the “SC150 (concentration of the compound required to increase the DNA binding activity by 50%)” value is reported as “+ (+ = 0 μM ≤ SC150 < 0.05 μM)”.
For `COc1cc(C#N)ccc1NCC#Cc1cc2c(NC3CCC(N4CC5(COC5)C4)CC3)cccc2n1CC(F)(F)F` (centres unmarked) [Compound 249A, 3-methoxy-4-[(3-{4-[(4-{2-oxa-6-azaspiro[3.3]heptan-6-yl}cyclohexyl)amino]-1-(2,2,2-trifluoroethyl)-1H-indol-2-yl}prop-2-yn-1-yl)amino]benzonitrile], the “SC150 (concentration of the compound required to increase the DNA binding activity by 50%)” value was “+ (+ = 0 μM ≤ SC150 < 0.05 μM)”.
`COc1cc(C#N)ccc1NCC#Cc1cc2c(NC3CCC(N4CC5(COC5)C4)CC3)cccc2n1CC(F)(F)F` [Compound 250A, 3-methoxy-4-{[3-(4-{[(1S,4S)-4-{2-oxa-6-azaspiro[3.3]heptan-6-yl}cyclohexyl]amino}-1-(2,2,2-trifluoroethyl)-1H-indol-2-yl)prop-2-yn-1-yl]amino}benzonitrile] was tested, and the “SC150 (concentration of the compound required to increase the DNA binding activity by 50%)” value was “+ (+ = 0 μM ≤ SC150 < 0.05 μM)”.
For `COc1cc(C(C)(C)C#N)ccc1NCC#Cc1cc2c(NC3CCC(N4CC5(COC5)C4)CC3)cccc2n1CC(F)(F)F` [Compound 251A, 2-(3-methoxy-4-{[3-(4-{[(1R,4R)-4-{2-oxa-6-azaspiro[3.3]heptan-6-yl}cyclohexyl]amino}-1-(2,2,2-trifluoroethyl)-1H-indol-2-yl)prop-2-yn-1-yl]amino}phenyl)-2-methylpropanenitrile], the “SC150 (concentration of the compound required to increase the DNA binding activity by 50%)” value was “+ (+ = 0 μM ≤ SC150 < 0.05 μM)”.
For `CNC(=O)c1ccc(NCC#Cc2cc3c(NC4CCC(N5CC6(COC6)C5)CC4)cccc3n2CC(F)(F)F)c(OCF)c1` [Compound 253A, 3-(fluoromethoxy)-N-methyl-4-{[3-(4-{[(1R,4R)-4-{2-oxa-6-azaspiro[3.3]heptan-6-yl}cyclohexyl]amino}-1-(2,2,2-trifluoroethyl)-1H-indol-2-yl)prop-2-yn-1-yl]amino} benzamide], the “SC150 (concentration of the compound required to increase the DNA binding activity by 50%)” value was “+ (+ = 0 μM ≤ SC150 < 0.05 μM)”.
With `CNC(=O)c1ccc(NCC#Cc2cc3c(NC4CCC(N5CC6(COC6)C5)CC4)cccc3n2CC(F)(F)F)c(OCCC#N)c1` [Compound 255A, 3-(2-cyanoethoxy)-N-methyl-4-{[3-(4-{[(1R,4R)-4-{2-oxa-6-azaspiro[3.3]heptan-6-yl}cyclohexyl]amino}-1-(2,2,2-trifluoroethyl)-1H-indol-2-yl)prop-2-yn-1-yl]amino}benzamide] the “SC150 (concentration of the compound required to increase the DNA binding activity by 50%)” value was “+ (+ = 0 μM ≤ SC150 < 0.05 μM)”.
For `CS(=O)(=O)c1ccc(NCC#Cc2cc3c(NC4CCC(N5CC6(COC6)C5)CC4)cccc3n2CC(F)(F)F)c(OCF)c1` [Compound 257A, 2-(3-{[2-(fluoro-methoxy)-4-methane-sulfonylphenyl]amino}prop-1-yn-1-yl)-N-[(1R,4R)-4-{2-oxa-6-azaspiro[3.3]heptan-6-yl}cyclo-hexyl]-1-(2,2,2-trifluoroethyl)-1H-indol-4-amine], the “SC150 (concentration of the compound required to increase the DNA binding activity by 50%)” value was “+ (+ = 0 μM ≤ SC150 < 0.05 μM)”.
In the case of `N#CCOc1cc(S(N)(=O)=O)ccc1NCC#Cc1cc2c(NC3CCC(N4CC5(COC5)C4)CC3)cccc2n1CC(F)(F)F` [Compound 259A, 3-(cyanomethoxy)-4-{[3-(4-{[(1R,4R)-4-{2-oxa-6-azaspiro[3.3]heptan-6-yl}cyclo-hexyl]amino}-1-(2,2,2-trifluoroethyl)-1H-indol-2-yl)prop-2-yn-1-yl]amino}benzene-1-sulfonamide], the “SC150 (concentration of the compound required to increase the DNA binding activity by 50%)” value is reported as “+ (+ = 0 μM ≤ SC150 < 0.05 μM)”.
`NS(=O)(=O)c1ccc(NCC#Cc2cc3c(N[C@H]4CC[C@H](N5CC6(COC6)C5)CC4)cccc3n2CC(F)(F)F)c(OCF)c1` [Compound 261A, 3-(fluoromethoxy)-4-{[3-(4-{[(1R,4R)-4-{2-oxa-6-azaspiro[3.3]heptan-6-yl}cyclo-hexyl]amino}-1-(2,2,2-trifluoroethyl)-1H-indol-2-yl)prop-2-yn-1-yl]amino}benzene-1-sulfonamide] was tested, and the “SC150 (concentration of the compound required to increase the DNA binding activity by 50%)” value was “+ (+ = 0 μM ≤ SC150 < 0.05 μM)”.
`CNS(=O)(=O)c1ccc(NCC#Cc2cc3c(N[C@H]4CC[C@H](N5CC6(COC6)C5)CC4)cccc3n2CC(F)(F)F)c(OC)c1` [Compound 263A, 4-((3-(4-(((1R,4R)-4-(2-oxa-6-azaspiro[3.3]heptan-6-yl)cyclo-hexyl)amino)-1-(2,2,2-trifluoroethyl)-1H-indol-2-yl)prop-2-yn-1-yl)amino)-3-methoxy-N-methylbenzene-sulfonamide] was tested, and the “SC150 (concentration of the compound required to increase the DNA binding activity by 50%)” value was “+ (+ = 0 μM ≤ SC150 < 0.05 μM)”.
For `COc1cc(Cl)ccc1NCC#Cc1cc2c(N[C@H]3CC[C@H](N4CC5(COC5)C4)CC3)cccc2n1CC(F)(F)F` [Compound 265A, N-((1R,4R)-4-(2-oxa-6-azaspiro[3.3]heptan-6-yl)cyclohexyl)-2-(3-((4-chloro-2-methoxyphenyl)amino)prop-1-yn-1-yl)-1-(2,2,2-trifluoroethyl)-1H-indol-4-amine], the “SC150 (concentration of the compound required to increase the DNA binding activity by 50%)” value was “+ (+ = 0 μM ≤ SC150 < 0.05 μM)”.
With `COc1cc(S(=O)(=O)N(C)C)ccc1NCC#Cc1cc2c(N[C@H]3CC[C@H](N4CC5(COC5)C4)CC3)cccc2n1CC(F)(F)F` [Compound 267A, 4-((3-(4-(((1R,4R)-4-(2-oxa-6-azaspiro[3.3]heptan-6-yl)cyclo-hexyl)amino)-1-(2,2,2-trifluoroethyl)-1H-indol-2-yl)prop-2-yn-1-yl)amino)-3-methoxy-N,N-dimethylbenzene-sulfonamide] the “SC150 (concentration of the compound required to increase the DNA binding activity by 50%)” value was “+ (+ = 0 μM ≤ SC150 < 0.05 μM)”.
`CCS(=O)(=O)c1ccc(NCC#Cc2cc3c(N[C@H]4CC[C@H](N5CC6(COC6)C5)CC4)cccc3n2CC(F)(F)F)c(OC)c1` [Compound 269A, N-((1R,4R)-4-(2-oxa-6-azaspiro[3.3]heptan-6-yl)cyclohexyl)-2-(3-((4-(ethylsulfonyl)-2-methoxyphenyl)amino)prop-1-yn-1-yl)-1-(2,2,2-trifluoroethyl)-1H-indol-4-amine] was tested, and the “SC150 (concentration of the compound required to increase the DNA binding activity by 50%)” value was “+ (+ = 0 μM ≤ SC150 < 0.05 μM)”.
With `COc1cc(C(N)=O)c(F)cc1NCC#Cc1cc2c(N[C@H]3CC[C@H](N4CC5(COC5)C4)CC3)cccc2n1CC(F)(F)F` [Compound 273A, 2-fluoro-5-methoxy-4-{[3-(4-{[(1R,4R)-4-{2-oxa-6-azaspiro[3.3]heptan-6-yl}cyclohexyl]amino}-1-(2,2,2-trifluoroethyl)-1H-indol-2-yl)prop-2-yn-1-yl]amino}benzamide] the “SC150 (concentration of the compound required to increase the DNA binding activity by 50%)” value was “+ (+ = 0 μM ≤ SC150 < 0.05 μM)”.
With `CNC(=O)c1cc(OC)c(NCC#Cc2cc3c(N[C@H]4CC[C@H](N5CC6(COC6)C5)CC4)cccc3n2CC(F)(F)F)cc1F` [Compound 275A, 2-fluoro-5-methoxy-N-methyl-4-{[3-(4-{[(1R,4R)-4-{2-oxa-6-azaspiro[3.3]heptan-6-yl}cyclohexyl]amino}-1-(2,2,2-trifluoroethyl)-1H-indol-2-yl)prop-2-yn-1-yl]amino}benzamide] the “SC150 (concentration of the compound required to increase the DNA binding activity by 50%)” value was “+ (+ = 0 μM ≤ SC150 < 0.05 μM)”.
With `COc1cc(C(F)(F)F)ccc1NCC#Cc1cc2c(N[C@H]3CC[C@H](N4CC5(COC5)C4)CC3)cccc2n1CC(F)(F)F` [Compound 277A, 2-(3-{[2-methoxy-4-(trifluoromethyl)phenyl]amino}prop-1-yn-1-yl)-N-[(1R,4R)-4-{2-oxa-6-azaspiro[3.3]heptan-6-yl}cyclohexyl]-1-(2,2,2-trifluoroethyl)-1H-indol-4-amine] the “SC150 (concentration of the compound required to increase the DNA binding activity by 50%)” value was “++ (++ = 0.05 μM ≤ SC150 < 0.1 μM)”.
In the case of `COc1cc(C(=O)O)ccc1NCC#Cc1cc2c(N[C@H]3CC[C@H](N4CC5(COC5)C4)CC3)cccc2n1CC(F)(F)F` [Compound 279A, 4-((3-(4-(((1R,4R)-4-(2-oxa-6-azaspiro[3.3]heptan-6-yl)cyclohexyl)amino)-1-(2,2,2-trifluoroethyl)-1H-indol-2-yl)prop-2-yn-1-yl)amino)-3-methoxybenzoic acid], the “SC150 (concentration of the compound required to increase the DNA binding activity by 50%)” value is reported as “+ (+ = 0 μM ≤ SC150 < 0.05 μM)”.
With `COc1cc(C(=O)O)c(F)cc1NCC#Cc1cc2c(N[C@H]3CC[C@H](N4CC5(COC5)C4)CC3)cccc2n1CC(F)(F)F` [Compound 281A, 2-fluoro-5-methoxy-4-{[3-(4-{[(1R,4R)-4-{2-oxa-6-azaspiro[3.3]heptan-6-yl}cyclohexyl]amino}-1-(2,2,2-trifluoroethyl)-1H-indol-2-yl)prop-2-yn-1-yl]amino}benzoic acid] the “SC150 (concentration of the compound required to increase the DNA binding activity by 50%)” value was “+ (+ = 0 μM ≤ SC150 < 0.05 μM)”.
